The values below come from paper PMC6268027, “Acetylcholinesterase-Inhibiting Activity of Salicylanilide N-Alkylcarbamates and Their Molecular Docking” (Molecules, 2012).

The target of data set [1] is T1, acetylcholinesterase (AChE) from electric eel (Electrophorus electricus, UniProt O42275).
T1 construct: purchased Sigma
Description: AChE inhibition, spectrophotometric Ellman's method. The settings on record: for IC50: electric eel AChE, Ellman's method, mean ± SD (n = 3 experiments); for AChE inhibition, fold higher than RIV: IC50 compared with rivastigmine. It counts as biochemical, Electrophorus electricus L. How it is done: The ability of the tested compounds to inhibit acetylcholinesterase (purchased from Sigma) from electric eel (Electrophorus electricus L.) was tested. […] The IC50 values were determined by the spectrophotometric Ellman’s method.
The IC50 values were determined using the spectrophotometric Ellman’s method, which is a simple, rapid and direct method to determine the SH and -S-S- group content in proteins. This method is widely used for measuring of cholinesterase activity and effectivity of cholinesterase inhibitors. Cholinesterase activity is measured indirectly by quantifying the concentration of 5-thio-2-nitrobenzoic acid (TNB) ion formed in the reaction between the thiol reagent 5,5′-dithiobis-2-nitrobenzoic acid (DTNB) and thiocholine, a product of substrate (i.e., acetylthiocholine, ATCh) hydrolysis by cholinesterase. All tested compounds were dissolved in dioxane (concentration 0.01 M) and then diluted in demineralised water (concentration 0.001 M and 0.0001 M). The procedure of determination of IC50 is a slightly modified Ellman’s method according to Zdrazilova and described in detail in [49]. For determination of IC50 values the inhibition was determined for 25 different compound concentrations with three replicates.
On the technique in general: DTNB colorimetry detects thiols as they appear.

Data set [2] can be described thus: Lipophilicity determination by RP-HPLC (capacity factor k / log k). The data set is classed as physicochemical. The settings on record: Symmetry C18, MeOH 70% / H2O 30%, column 45 °C. The source says:
A Waters Alliance 2695 XE HPLC separation module and a Waters Photodiode Array Detector 2996 (Waters Corp., Milford, MA, USA) were used. A Symmetry® C18 5 μm, 4.6 × 250 mm chromatographic column, Part No. WAT054275 (Waters Corp., Milford, MA, USA) was used. The HPLC separation process was monitored by Empower™ 2 Chromatography Data Software, Waters 2009 (Waters Corp., Milford, MA, USA). A mixture of MeOH p.a. (70%) and H2O-HPLC–Mili-Q Grade (30%) was used as a mobile phase. The total flow of the column was 1.0 mL/min, injection volume, 30 μL, column temperature, 45 °C and sample temperature, 10 °C. The detection wavelength of 210 nm was chosen. The KI methanolic solution was used for the dead time (tD) determination. The retention times (tR) were measured in minutes. The capacity factors k were calculated using the Empower™ 2 Chromatography Data Software according to formula k = (tR− tD)/tD, where tR is the retention time of the solute, whereas tD denotes the dead time obtained using an unretained analyte. Log k, calculated from the capacity factor k, is used as the lipophilicity index converted to log P scale.

T1 sequence (O42275 24-633): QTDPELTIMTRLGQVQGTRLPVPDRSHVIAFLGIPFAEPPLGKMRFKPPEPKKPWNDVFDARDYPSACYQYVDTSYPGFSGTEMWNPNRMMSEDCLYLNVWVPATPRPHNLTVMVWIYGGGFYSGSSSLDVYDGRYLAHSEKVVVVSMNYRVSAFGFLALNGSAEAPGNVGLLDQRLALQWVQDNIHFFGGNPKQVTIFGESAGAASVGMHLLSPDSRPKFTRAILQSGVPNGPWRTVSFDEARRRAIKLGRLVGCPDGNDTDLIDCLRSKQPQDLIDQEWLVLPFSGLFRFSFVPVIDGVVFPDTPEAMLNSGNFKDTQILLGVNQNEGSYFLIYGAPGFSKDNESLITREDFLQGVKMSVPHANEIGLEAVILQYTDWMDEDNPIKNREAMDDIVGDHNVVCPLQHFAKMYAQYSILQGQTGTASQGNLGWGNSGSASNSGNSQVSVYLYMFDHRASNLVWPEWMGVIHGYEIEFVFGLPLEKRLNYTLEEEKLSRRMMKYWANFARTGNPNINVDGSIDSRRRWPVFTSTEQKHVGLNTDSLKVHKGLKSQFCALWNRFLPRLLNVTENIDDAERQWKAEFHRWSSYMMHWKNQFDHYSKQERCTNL

As usually defined, the IC50 is the concentration that gives 50% inhibition. A low value points to greater potency in that assay. In data set [1], `CCCCCCCCCCCNC(=O)Oc1ccc(Cl)cc1C(=O)Nc1cccc(Cl)c1` [4i] registered a half-inhibitory concentration (IC50) of 56.9 ± 0.48 µM. In data set [2], this molecule returned a log k of 0.7902.
The like results for `CCCCCCCCCCCNC(=O)Oc1ccc(Cl)cc1C(=O)Nc1ccc(Cl)cc1` [5i] were, in that order, 44.3 ± 0.33 µM and 0.7947.
Taken in the same sequence, the figures for `CCCCCCCCCNC(=O)Oc1ccc(Cl)cc1C(=O)Nc1ccc(Cl)cc1` [5g] were 52.2 ± 0.39 µM and 0.7919.
The like results for `CCCCCCNC(=O)Oc1ccc(Cl)cc1C(=O)Nc1ccc(Cl)cc1` [5d] were, in that order, 31 ± 0.29 µM and 0.7859.
`CCCCCCCCNC(=O)Oc1ccc(Cl)cc1C(=O)Nc1cccc(Cl)c1` [4f] displayed a half-inhibitory concentration (IC50) in data set [1] of 69.9 ± 0.49 µM. Further, the log k in data set [2] is listed as 0.7831.
The like results for `CCCCNC(=O)Oc1ccc(Cl)cc1C(=O)Nc1ccc(Cl)c(Cl)c1` [6b] were, in that order, 64.7 ± 0.79 µM and 1.0457.
The like results for `CCCCCCCNC(=O)Oc1ccc(Cl)cc1C(=O)Nc1ccc(Cl)cc1` [5e] were, in that order, 49.4 ± 0.31 µM and 0.7872.
Taken in the same sequence, the figures for `CCNC(=O)Oc1ccc(Cl)cc1C(=O)Nc1ccc(Cl)cc1` [5a] were 59.1 ± 0.33 µM and 0.7695.
Turning to `CCCCCNC(=O)Oc1ccc(Cl)cc1C(=O)Nc1cccc(Cl)c1` [4c], the IC50 in data set [1] was 50.4 ± 0.48 µM. Further, the log k in data set [2] is recorded as 0.7732.
For the molecule `CCCCCCCCCCNC(=O)Oc1ccc(Cl)cc1C(=O)Nc1cccc(Cl)c1` [4h], half-maximal inhibition in data set [1] (IC50) required 52.7 ± 0.45 µM. The log k in data set [2] is 0.7873.
In data set [1], `CCCCCCCNC(=O)Oc1ccc(Cl)cc1C(=O)Nc1cccc(Cl)c1` [4e] came in with an IC50 of 61.7 ± 0.5 µM. Moreover, in data set [2], the log k came to 0.7772.
`CCCCCCCNC(=O)Oc1ccc(Cl)cc1C(=O)Nc1ccc(Cl)c(Cl)c1` [6e] showed an IC50 in data set [1] of 36.7 ± 0.28 µM. The same molecule came in with a log k in data set [2] of 1.0667.
The like results for `CCCCCCCCCNC(=O)Oc1ccc(Cl)cc1C(=O)Nc1ccc(Cl)c(Cl)c1` [6g] were, in that order, 43.9 ± 0.32 µM and 1.0880.
The molecule `CCNC(=O)Oc1ccc(Cl)cc1C(=O)Nc1cccc(Cl)c1` [4a] returned a log k in data set [2] of 0.7523.
In data set [1], `CCCCCCCCCNC(=O)Oc1ccc(Cl)cc1C(=O)Nc1cccc(Cl)c1` [4g] returned an IC50 of 34.2 ± 0.26 µM. In data set [2], this molecule gave a log k of 0.7837.
The like results for `CCNC(=O)Oc1ccc(Cl)cc1C(=O)Nc1ccc(Cl)c(Cl)c1` [6a] were, in that order, 67.3 ± 0.52 µM and 1.0234.
`CCCCCCCCNC(=O)Oc1ccc(Cl)cc1C(=O)Nc1ccc(Cl)cc1` [5f] returned an IC50 in data set [1] of 62.5 ± 0.41 µM. Besides, the log k in data set [2] is recorded as 0.7899.
The like results for `CCCCCCNC(=O)Oc1ccc(Cl)cc1C(=O)Nc1ccc(Cl)c(Cl)c1` [6d] were, in that order, 41.2 ± 0.36 µM and 1.0611.
The like results for `CCCCCCCCCCNC(=O)Oc1ccc(Cl)cc1C(=O)Nc1ccc(Cl)cc1` [5h] were, in that order, 64.6 ± 0.41 µM and 0.7942.
Taken in the same sequence, the figures for `CCCCCNC(=O)Oc1ccc(Cl)cc1C(=O)Nc1ccc(Cl)cc1` [5c] were 41.7 ± 0.29 µM and 0.7838.
`CCCCCCCCNC(=O)Oc1ccc(Cl)cc1C(=O)Nc1ccc(Cl)c(Cl)c1` [6f] gave a half-maximal inhibitory concentration (IC50) in data set [1] of 32.1 ± 0.29 µM. Also, in data set [2], the log k is given as 1.0845.
The like results for `CCCCCNC(=O)Oc1ccc(Cl)cc1C(=O)Nc1ccc(Cl)c(Cl)c1` [6c] were, in that order, 56 ± 0.42 µM and 1.0601.
The like results for `CCCCCCNC(=O)Oc1ccc(Cl)cc1C(=O)Nc1cccc(Cl)c1` [4d] were, in that order, 35.1 ± 0.31 µM and 0.7758.
Consider `CCCCCCCCCCCNC(=O)Oc1ccc(Cl)cc1C(=O)Nc1ccc(Cl)c(Cl)c1` [6i], for which, in data set [1], the “AChE inhibition, fold higher than RIV” value is given as 16 fold and the IC50 came to 29.9 ± 0.22 µM. This molecule showed a log k in data set [2] of 1.0903.
For `CCCCNC(=O)Oc1ccc(Cl)cc1C(=O)Nc1cccc(Cl)c1` [4b], the log k in data set [2] turned out to be 0.7611.
As to `CCCCNC(=O)Oc1ccc(Cl)cc1C(=O)Nc1ccc(Cl)cc1` [5b], in data set [1], 48.1 ± 0.31 µM corresponded to half-maximal inhibition (IC50). Besides, the log k in data set [2] came out at 0.7759.
Take `CCCCCCCCCCNC(=O)Oc1ccc(Cl)cc1C(=O)Nc1ccc(Cl)c(Cl)c1` [6h]: in data set [1], the “AChE inhibition, fold higher than RIV” value worked out at 23 fold and it took 21.8 ± 0.2 µM to reach half-maximal inhibition (IC50). In addition, in data set [2], the log k is 1.0894.
